In brackets after ≈: the same amount, converted by molar mass. Activity calls are given as the source filed them. No cut-off for these calls is given here.
Key:
Shigella flexneri [1] = assay: Antibacterial activity against Shigella flexneri MTCC 1457 after 24 hrs; format: functional; details: MTCC 1457, 24 h
Staphylococcus aureus [2] = assay: Antibacterial activity against Staphylococcus aureus MTCC 96 at 1 mg/disc after 24 hrs by disc diffusion method; format: functional
A549 [3] = assay: Cytotoxicity against human A549 cells assessed as cell death at 200 ug/ml by MTT assay; format: functional
Klebsiella pneumoniae [4] = assay: Antibacterial activity against Klebsiella pneumoniae MTCC 109 at 1 mg/disc after 24 hrs by disc diffusion method; format: functional
Candida albicans [5] = assay: Antifungal activity against Candida albicans MTCC 227 at 1 mg/disc after 48 hrs by disc diffusion method; format: functional
A549 [6] = assay: Cytotoxicity against human A549 cells assessed as cell death at 50 ug/ml by MTT assay; format: functional
Salmonella typhimurium [7] = assay: Antibacterial activity against Salmonella typhimurium MTCC 1251 at 1 mg/disc after 24 hrs by disc diffusion method; format: functional, Salmonella enterica subsp. enterica serovar Typhimurium; details: for inhibition: Salmonella enterica subsp. enterica serovar Typhimurium
Klebsiella aerogenes [8] = assay: Antibacterial activity against Enterobacter aerogenes MTCC 111 at 1 mg/disc after 24 hrs by disc diffusion method; format: functional
[9] = Antifungal activity against Malassezia pachydermatis at 1 mg/disc after 48 hrs by disc diffusion method; format: functional
Shigella flexneri [10] = assay: Antibacterial activity against Shigella flexneri MTCC 1457 at 1 mg/disc after 24 hrs by disc diffusion method; format: functional
Staphylococcus aureus [11] = assay: Antibacterial activity against Staphylococcus aureus MTCC 96 after 24 hrs; format: functional; details: MTCC 96, 24 h
Klebsiella pneumoniae [12] = assay: Antibacterial activity against Klebsiella pneumoniae MTCC 109 after 24 hrs; format: functional; details: MTCC 109, 24 h
Staphylococcus aureus [13] = assay: Antibacterial activity against methicillin-resistant Staphylococcus aureus after 24 hrs; format: functional
A549 [14] = assay: Cytotoxicity against human A549 cells assessed as cell death at 100 ug/ml by MTT assay; format: functional
Candida albicans [15] = assay: Antifungal activity against Candida albicans MTCC 227 after 48 to 72 hrs; format: functional
Micrococcus luteus [16] = assay: Antibacterial activity against Micrococcus luteus MTCC 106 after 24 hrs; format: functional; details: MTCC 106, 24 h
Klebsiella aerogenes [17] = assay: Antibacterial activity against Enterobacter aerogenes MTCC 111 after 24 hrs; format: functional
Micrococcus luteus [18] = assay: Antibacterial activity against Micrococcus luteus MTCC 106 at 1 mg/disc after 24 hrs by disc diffusion method; format: functional
Proteus vulgaris [19] = assay: Antibacterial activity against Proteus vulgaris MTCC 1771 after 24 hrs; format: functional
Proteus vulgaris [20] = assay: Antibacterial activity against Proteus vulgaris MTCC 1771 at 1 mg/disc after 24 hrs by disc diffusion method; format: functional
Salmonella typhimurium [21] = assay: Antibacterial activity against Salmonella typhimurium MTCC 1251 after 24 hrs; format: functional, Salmonella enterica subsp. enterica serovar Typhimurium
Staphylococcus aureus [22] = assay: Antibacterial activity against methicillin-resistant Staphylococcus aureus at 1 mg/disc after 24 hrs by disc diffusion method; format: functional
[23] = Salmonella enterica, MTCC 1251, 24 h
[24] = Salmonella enterica subsp. enterica serovar Typhimurium

SMILES	MIC (Shigella flexneri [1]) [mg/L]	inhibition zone (IZ) (Staphylococcus aureus [2]) [mm]	Activity (A549 [3]) [%]	inhibition zone (IZ) (Klebsiella pneumoniae [4]) [mm]	inhibition zone (IZ) (Candida albicans [5]) [mm]	Activity (A549 [6]) [%]	inhibition zone (IZ) (Salmonella typhimurium [7]) [mm]	inhibition zone (IZ) (Klebsiella aerogenes [8]) [mm]	inhibition [9]	inhibition zone (IZ) (Shigella flexneri [10]) [mm]	MIC (Staphylococcus aureus [11]) [mg/L]	MIC (Klebsiella pneumoniae [12]) [mg/L]	MIC (Staphylococcus aureus [13]) [mg/L]	Activity (A549 [14]) [%]	MIC (Candida albicans [15]) [mg/L]	MIC (Micrococcus luteus [16]) [mg/L]	inhibition zone (IZ) (Micrococcus luteus [18]) [mm]	MIC (Proteus vulgaris [19]; MTCC 1771, 24 h) [mg/L]	inhibition zone (IZ) (Proteus vulgaris [20]) [mm]	inhibition zone (IZ) (Staphylococcus aureus [22]) [mm]	also measured
CN1C(=O)[C@@]2(c3ccccc31)N(C)C[C@](C#N)(C(=O)c1c[nH]c3ccccc13)[C@]21C(=O)Nc2ccccc21	250 (≈ 498 µM)	13	13.99	13	12	1.71	10	8	inactive	12	250 (≈ 498 µM)	125 (≈ 249 µM)	500 (≈ 997 µM)	7.22	250 (≈ 498 µM)	250 (≈ 498 µM)	11	125 (≈ 249 µM)	14	11	MIC (Klebsiella aerogenes [17]): inactive; MIC (Salmonella typhimurium [21]; [23]): 500 mg/L (≈ 997 µM)
CN1C[C@](C#N)(C(=O)c2c[nH]c3ccccc23)[C@]2(C(=O)Nc3ccccc32)[C@@]12C(=O)Nc1ccccc12	500 (≈ 1030 µM)	8	33.5	12	9	17.46		9	inactive	8	500 (≈ 1030 µM)	125 (≈ 256 µM)	500 (≈ 1030 µM)	20.91	500 (≈ 1030 µM)	500 (≈ 1030 µM)	9	500 (≈ 1030 µM)	8	10	inhibition (Salmonella typhimurium [7]): inactive; MIC (Klebsiella aerogenes [17]; MTCC 111, 24 h): 500 mg/L (≈ 1030 µM); MIC (Salmonella typhimurium [21]; [24]): inactive
CN1C(=O)[C@@]2(c3cc([N+](=O)[O-])ccc31)N(C)C[C@](C#N)(C(=O)c1c[nH]c3ccccc13)[C@]21C(=O)Nc2ccccc21			60.22		9	9.27	8							24.36			7				inhibition (Staphylococcus aureus [2]): inactive; inhibition (Klebsiella pneumoniae [4]): inactive; inhibition (Klebsiella aerogenes [8]): inactive; inhibition zone (IZ) [9]: 12 mm; inhibition (Shigella flexneri [10]): inactive; inhibition (Proteus vulgaris [20]): inactive; inhibition (Staphylococcus aureus [22]): inactive
CC(=O)N1CCN(c2ccc(OCC3COC(Cn4ccnc4)(c4ccc(Cl)cc4Cl)O3)cc2)CC1 (stereo not given) [KETOCONAZOLE]					28										25 (≈ 47 µM)						inhibition zone (IZ) [9]: 26 mm
CN[C@@H]1[C@H](O[C@H]2[C@H](O[C@H]3[C@H](O)[C@@H](O)[C@H](N=C(N)N)[C@@H](O)[C@@H]3N=C(N)N)O[C@@H](C)[C@]2(O)C=O)O[C@@H](CO)[C@H](O)[C@H]1O [STREPTOMYCIN]	6.25 (≈ 10.7 µM)	14		20			18	22		30	6.25 (≈ 10.7 µM)	6.25 (≈ 10.7 µM)	6.25 (≈ 10.7 µM)			6.25 (≈ 10.7 µM)	26		30	30	MIC (Klebsiella aerogenes [17]; MTCC 111, 24 h): 25 mg/L (≈ 43 µM); MIC (Proteus vulgaris [19]): inactive; MIC (Salmonella typhimurium [21]; [23]): 30 mg/L (≈ 51.6 µM)
CN1C[C@](C#N)(C(=O)c2c[nH]c3ccccc23)[C@]2(C(=O)Nc3ccccc32)[C@@]12C(=O)Nc1ccc(Cl)cc12	1000 (≈ 1920 µM)	9	13.15	14	9	3.58	8		inactive	11	500 (≈ 958 µM)	125 (≈ 239 µM)	500 (≈ 958 µM)	7.38	500 (≈ 958 µM)	1000 (≈ 1920 µM)	10	250 (≈ 479 µM)	13	8	inhibition (Klebsiella aerogenes [8]): inactive; MIC (Klebsiella aerogenes [17]): inactive; MIC (Salmonella typhimurium [21]; [23]): 500 mg/L (≈ 958 µM)
CN1C[C@](C#N)(C(=O)c2c[nH]c3ccccc23)[C@]2(C(=O)Nc3ccccc32)[C@@]12C(=O)Nc1ccc([N+](=O)[O-])cc12			55.26		9	18.37	8	8	inactive					36.65							inhibition (Staphylococcus aureus [2]): inactive; inhibition (Klebsiella pneumoniae [4]): inactive; inhibition (Shigella flexneri [10]): inactive; inhibition (Micrococcus luteus [18]): inactive; inhibition (Proteus vulgaris [20]): inactive; inhibition (Staphylococcus aureus [22]): inactive
CN1C[C@](C#N)(C(=O)c2c[nH]c3ccccc23)[C@]2(C(=O)Nc3ccccc32)[C@@]12C(=O)Nc1ccc(Br)cc12	500 (≈ 883 µM)	11	15.98	9	11	3.43	15	10	inactive	10	500 (≈ 883 µM)	500 (≈ 883 µM)	500 (≈ 883 µM)	9.34	500 (≈ 883 µM)	1000 (≈ 1770 µM)	9	250 (≈ 441 µM)	12	9	MIC (Klebsiella aerogenes [17]): inactive; MIC (Salmonella typhimurium [21]; [23]): 125 mg/L (≈ 221 µM)
CN1C[C@](C#N)(C(=O)c2c[nH]c3ccccc23)[C@]2(C(=O)Nc3ccccc32)[C@@]12C(=O)Nc1ccc(F)cc12	500 (≈ 989 µM)	12	16.79	8	11	3.6		9	inactive	9	125 (≈ 247 µM)	500 (≈ 989 µM)	500 (≈ 989 µM)	10.82	125 (≈ 247 µM)	500 (≈ 989 µM)	9			10	inhibition (Salmonella typhimurium [7]): inactive; MIC (Klebsiella aerogenes [17]; MTCC 111, 24 h): 500 mg/L (≈ 989 µM); MIC (Proteus vulgaris [19]): inactive; inhibition (Proteus vulgaris [20]): inactive; MIC (Salmonella typhimurium [21]; [24]): inactive
CN1C(=O)[C@@]2(c3cc(F)ccc31)N(C)C[C@](C#N)(C(=O)c1c[nH]c3ccccc13)[C@]21C(=O)Nc2ccccc21	500 (≈ 962 µM)	10	25.51	9	9	1.41	8	11	inactive	9	500 (≈ 962 µM)	500 (≈ 962 µM)	500 (≈ 962 µM)	12.22	500 (≈ 962 µM)	500 (≈ 962 µM)	10	500 (≈ 962 µM)	8	9	MIC (Klebsiella aerogenes [17]; MTCC 111, 24 h): 125 mg/L (≈ 241 µM); MIC (Salmonella typhimurium [21]; [23]): 500 mg/L (≈ 962 µM)
CCOC(=O)CN1C(=O)[C@@]2(c3ccccc31)N(C)C[C@](C#N)(C(=O)c1c[nH]c3ccccc13)[C@]21C(=O)Nc2ccccc21		9	27.78		9	11.04								21.25					8		inhibition (Klebsiella pneumoniae [4]): inactive; inhibition (Salmonella typhimurium [7]): inactive; inhibition (Klebsiella aerogenes [8]): inactive; inhibition zone (IZ) [9]: 11 mm; inhibition (Shigella flexneri [10]): inactive; inhibition (Micrococcus luteus [18]): inactive; inhibition (Staphylococcus aureus [22]): inactive
C=CCN1C(=O)[C@@]2(c3ccccc31)N(C)C[C@](C#N)(C(=O)c1c[nH]c3ccccc13)[C@]21C(=O)Nc2ccccc21	1000 (≈ 1900 µM)	11	16	12	9	5.61	16		inactive	9	500 (≈ 948 µM)	125 (≈ 237 µM)	1000 (≈ 1900 µM)	8.81	500 (≈ 948 µM)	500 (≈ 948 µM)	10	1000 (≈ 1900 µM)	9	9	inhibition (Klebsiella aerogenes [8]): inactive; MIC (Klebsiella aerogenes [17]): inactive; MIC (Salmonella typhimurium [21]; [23]): 62.5 mg/L (≈ 118 µM)
CN1C[C@](C#N)(C(=O)c2c[nH]c3ccccc23)[C@]2(C(=O)Nc3ccccc32)[C@@]12C(=O)N(c1ccccc1)c1ccccc12		7	47.89	9	13	39.41								41.58							inhibition (Salmonella typhimurium [7]): inactive; inhibition (Klebsiella aerogenes [8]): inactive; inhibition zone (IZ) [9]: 14 mm; inhibition (Shigella flexneri [10]): inactive; inhibition (Micrococcus luteus [18]): inactive; inhibition (Proteus vulgaris [20]): inactive; inhibition (Staphylococcus aureus [22]): inactive
